# What was measured:
# Assay type in all cases: cell-based
# [1] = system: human primary melanocytes and HaCat keratinocytes; experiment: Melanosome Transfer Assay (MTA), Example 3; settings: 72 hours co-culture; for % Inhibition in melanosome transfer: 15 mM; for inhibition at 5000 µM / inhibition at 10000 µM: Homo sapiens, HaCaT; for inhibition at 5000 µM: 5 mM; for inhibition at 10000 µM: 10 mM
# Procedure: 1.3×10^4 cells of human primary melanocytes (C-202-5C, Lonza) prepared in culture medium (MGM:KGM=1:1) and 2.6×10^4 HaCat keratinocytes prepared in culture medium (MGM:KGM=1:1) were mixed together and plated in a 48 well plate and incubated in an tissue culture tissue culture incubator (Thermo Scientific, Model 3111) at 37° C. with 5% CO2 atmosphere. After 4 hours of incubation, co-cultures were treated with the samples and again incubated for 72 hours in the same incubator under the same conditions. After culturing for required period (72 hours), the cells were prepared for flow cytometry analysis by following the procedure as set out below: • 1. Cells were isolated from 48 wells plate into a V-bottom plate (Torson, 941396) with 200 μl of trypsin EDTA buffer and the trypsin activity was neutralized with 200 μl of trypsin neutralizer and pelleted down to 350 g using a cold centrifuge (Plasto Crafts, Model no: Roat 4R-V/FM). • 2. To the pellet, 100 μl of 1% para-formaldehyde was added and incubated for 10 minutes on ice. • 3. Cells were then centrifuged (1000 G) with 100 μl of phosphate buffer saline (PBS) for 10 minutes and the pellet was used for staining with a solution as stated in below step 4. The PBS was prepared by adding 4 g sodium chloride, 0.1 g potassium chloride, 0.58 g disodium hydrogen phosphate and 0.1 g potassium dihydrogen phosphate into 500 ml of autoclaved Mili-Q water.
# (§1) FACS buffer (Florescence activated cell sorter) was prepared by adding 0.1% Saponin and >0.05% (0.05% wt/volume) Fetal Bovine serum in PBS mixed with Alexa 488 conjugated goat anti-Trp1 antibody (TRP1 Alexa 488 (TRP1, tyrosinase related protein is an specific melanosome marker protein, Santacruz, catalog No: sc-10443) (1 μL/100 μL) and anti-pan cytokeratin antibody (pan cytokeratin, cytokeratin is a specific marker for keratinocytes) PE, Santacruz, catalog No: sc-8018) (1 μL/100 μL). The above mention FACS buffer was added to the pellet in each well (100 μL/well) and incubated for 60 minutes on ice. • 4. The cells were then washed with PBS and centrifuged down to ˜1000 G using a cold centrifuge (Plasto crafts, Roat 4R-V/FM) • 5. The cell pellets were suspended in PBS and transferred to round bottom 96 wells plate and analyzed by flow cytometry (BD Biosciences, Model—BD Facs calibur with BD HTS) Calculation of Melanosome Transfer (% Transfer):
# Keratinocytes containing transferred melanosomes were detected by flow cytometry analysis.
# The % transfer in untreated cells (NO active) was considered as 100%. In comparison to the untreated cells, the percentage transfer of the treated cell samples were calculated.
# [2] = system: Human primary melanocytes; experiment: Melanin Content Assay (MCA); settings: for inhibition at 5000 µM / inhibition at 10000 µM: Homo sapiens, Melanocyte, 72 hours, vs untreated cells, read-out: % Inhibition in Melanin Synthesis (Mean ± SD); for inhibition at 5000 µM: 5 mM; for inhibition at 10000 µM: 10 mM
# Procedure: Human primary melanocytes were grown in melanocytes growth medium (MGM) with human melanocyte growth supplement. 500 μL/well (5×10^4 cells/well) of this solution was plated in a 24 wells plate and incubated in an incubator (Thermo Scientific, Model 3111) at 37° C. with 5% CO2 atmosphere. After 24 hours of incubation, cell cultures were treated with the lead actives dissolved in water. The control was cells treated with the vehicle (water) alone. The cells were again incubated for 72 hours in an incubator (Thermo Scientific, Model 3111; conditions: 5% CO2, at 37° C.). At the end of the incubation the culture medium was replaced with 120μl/well of MCA reagent ([…] DMSO in 1N NaOH) and incubated for 1 hour at 60° C. in a shaker incubator. The supernatant was then transferred to a 384 well plate. The absorbance was measured spectrophotometric at 405 nm with a micro plate reader (GEnios Pro, Tecan). The spectrophotometric OD at 405 nm for untreated cells (NO active) was considered as 100% melanin content. In comparison to the untreated cells, the percentage inhibition of the treated cell samples were calculated.
# [3] = system: human primary melanocytes and HaCat keratinocytes; experiment: Melanosome Transfer Assay (MTA), Example 2; settings: 5 mM, 72 hours co-culture, read-out: % inhibition in keratinocytes containing melanosome (Mean ± SD)
# Procedure: 1.3×10^4 cells of human primary melanocytes (C-202-5C, Lonza) prepared in culture medium (MGM:KGM=1:1) and 2.6×10^4 HaCat keratinocytes prepared in culture medium (MGM:KGM=1:1) were mixed together and plated in a 48 well plate and incubated in an tissue culture incubator (Thermo Scientific, Model 3111) at 37° C. with 5% CO2 atmosphere. After 4 hours of incubation, co-cultures were treated (added) with the samples and again incubated for 72 hours in the same incubator under the same conditions. After culturing for required period (72 hours), the cells were prepared for flow cytometry analysis by following the procedure as set out below: • 1. […]
# as §1, with “FACS” for “FACS buffer”, “The above mention FACS buffer was added to the pellet in each well (100 μL/well) and incubated for 60 minutes on ice. • 4. The cells were then washed with PBS and centrifuged down to ˜1000 G using a cold centrifuge (Plasto crafts, Roat 4R-V/FM) • 5.” left out, “analysed” for “analyzed”, “Facscalibur” for “Facs calibur”, “Transfer): […]” for “Transfer):”
Compound,% Inhibition in melanosome transfer [1],inhibition at 5000 µM [1] [%],inhibition at 10000 µM [1] [%],inhibition at 5000 µM [2] [%],inhibition at 10000 µM [2] [%],"reduction of melanin content in primary human melanocytes ([2]; niacinamide by itself, at 5 mM and 10 mM)",inhibition at 5000 µM [3] [%]
"NC(=O)c1cccnc1 [Niacinamide, pyridine-3-carboxamide]",cell death,16.5,25,3 ± 0.4,8 ± 2.3,modest reduction,15.1 ± 0.4
"NC(=O)c1ccccn1 [Picolinamide, pyridine 2-carboxamide]",cell death,-8,18,14 ± 0.9,23 ± 3.3,,

# — patent US10952952B2, “Skin lightening composition” (Conopco, Inc., priority 2015, dated 2021)
